From patent US20210395256A1, “TYROSINE KINASE INHIBITORS, COMPOSITIONS AND METHODS THERE OF” (Betta Pharmaceuticals Co., Ltd., priority 2018, published 2021)
Counter-ions that a name gives are not always drawn. Like-named read-outs stand apart in the source and are kept apart here.

Target: TrkA kinase (Homo sapiens, UniProt P04629)
Assay: TrkA kinase assay (mobility shift assay)
Format: biochemical
Conditions: read-out: Trk A Kinase IC50
Experimental: Example 201 TrkA Kinase Assay
Mobility shift assay was used to determine the inhibitory activity of compounds against TrkA kinase. Assay procedures are as follows:
1× Kinase base buffer (50 mM HEPES, pH 7.5; 0.0015% Brij-35)
Stop buffer (100 mM HEPES, pH 7.5; 0.015% Brij-35; 0.2% Coating Reagent #3; 50 mM EDTA)
1) Dilute the compound to 50× of the final desired highest inhibitor concentration in reaction by 100% DMSO. Transfer 100 μl of this compound dilution to a well in a 96-well plate.
2) For all compounds, transfer the compound in tubes to one well on 96-well storage plate and serially dilute the compound by transferring 30 μl to 60 μl of 100% DMSO in the next well and so forth for a total of 10 concentrations.
3) Add 100 μl of 100% DMSO to two empty wells for no compound control and no enzyme control in the same 96-well plate. Mark the plate as source plate.
4) Prepare intermediate plate
Transfer 10 μl of compound from source plate to a new 96-well plate as the intermediate plate
Add 90 µl of 1× kinase buffer to each well of the intermediate plate.
Mix the compounds in intermediate plate for 10 min on shaker.
1) Transfer 5 μl of each well from the 96-well intermediate plate to a 384-well plate in duplicates. For example, A1 of the 96-well plate is transferred to A1 and A2 of the 384-well plate. A2 of the 96-well plate is transferred to A3 and A4 of the 384-well plate, and so on.
1) Prepare 2.5× enzyme solution
Add kinase in 1× kinase base buffer.
2) Prepare 2.5× peptide solution Add FAM-labeled peptide and ATP in the 1× kinase base buffer.
3) Assay plate already contains 5 μl of compound in 10% DMSO.
4) Transfer 2.5× enzyme solution to the assay plate
Add 10 μl of 2.5× enzyme solution to each well of the 384-well assay plate.
5) Incubate at room temperature for 10 min.
6) Transfer 2.5× peptide solution to the assay plate
Add 10 μl of 2.5× peptide solution to each well of the 384-well assay plate.
Kinase reaction conditions are shown as Table 11:
7) Kinase reaction and stop
Incubate at 28° C. for specified period of time.
Add 25 μl of stop buffer to stop reaction.
1) Copy conversion data from Caliper program.
2) Convert conversion values to inhibition values.
Percent inhibition=(max-conversion)/(max-min)*100.
“max” stands for DMSO control; “min” stands for low control.
3) Fit the data in XLFit excel add-in version 5.4.0.8 to obtain IC50 values.
Equation used is: Y=Bottom+(Top-Bottom)/(1+(IC50/X)^HillSlope)

TrkA kinase, sequence (P04629 33-796): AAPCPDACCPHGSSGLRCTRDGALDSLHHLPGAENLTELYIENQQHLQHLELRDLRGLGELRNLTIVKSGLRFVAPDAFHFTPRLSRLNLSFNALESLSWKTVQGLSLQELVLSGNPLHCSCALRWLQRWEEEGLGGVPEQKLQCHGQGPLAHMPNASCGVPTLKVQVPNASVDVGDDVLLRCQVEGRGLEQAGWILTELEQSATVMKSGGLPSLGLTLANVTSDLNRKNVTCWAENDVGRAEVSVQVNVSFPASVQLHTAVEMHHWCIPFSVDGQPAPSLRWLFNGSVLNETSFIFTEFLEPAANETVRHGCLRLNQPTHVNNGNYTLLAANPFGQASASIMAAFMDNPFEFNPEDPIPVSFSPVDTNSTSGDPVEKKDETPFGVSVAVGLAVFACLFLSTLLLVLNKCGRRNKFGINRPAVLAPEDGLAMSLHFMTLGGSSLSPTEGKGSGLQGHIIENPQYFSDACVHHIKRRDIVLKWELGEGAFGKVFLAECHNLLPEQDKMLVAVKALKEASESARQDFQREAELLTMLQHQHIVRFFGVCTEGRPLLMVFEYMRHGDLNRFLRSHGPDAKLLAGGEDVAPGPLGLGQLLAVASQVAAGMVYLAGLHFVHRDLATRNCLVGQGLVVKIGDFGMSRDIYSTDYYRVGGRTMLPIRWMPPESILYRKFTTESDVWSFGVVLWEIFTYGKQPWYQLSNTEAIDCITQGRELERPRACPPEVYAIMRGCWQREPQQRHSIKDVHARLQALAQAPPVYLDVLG

IC50 (class symbols) [nM]	IC50 (numeric values) [nM]	Compound
10 to 50	–	CC(C)[C@H](N)C(=O)N[C@H](C(=O)O[C@@H](C)c1nnc(-c2cnn3ccc(N4CCC[C@@H]4c4cc(F)ccc4F)nc23)[nH]1)C(C)C [Compound 55, (S)-1-(5-(5-((R)-2-(2,5-difluorophenyl)pyrrolidin-1-yl)pyrazolo[1,5-a]pyrimidin-3-yl)-4H-1,2,4-triazol-3-yl)ethyl L-valylvalinate hydrochloride]
–	0.76	Cc1cc2[nH]c(-c3cnn4ccc(N5CCC[C@@H]5c5cc(F)ccc5F)nc34)nc2cn1 [Compound 86, (R)-2-(5-(2-(2,5-difluorophenyl)pyrrolidin-1-yl)pyrazolo[1,5-a]pyrimidin-3-yl)-6-methy1-1H-imidazo[4,5-c]pyridine]
≤ 10	–	N#Cc1cc2nc(-c3cnn4ccc(N5CCC[C@@H]5c5cc(F)ccc5F)nc34)[nH]c2cc1N1CC(O)C1 [Compound 145, (R)-2-(5-(2-(2,5-difluorophenyl)pyrrolidin-1-yl)pyrazolo[1,5-a]pyrimidin-3-yl)-6-(3-hydroxyazetidin-1-yl)-1H-benzo[d]imidazole-5-carbonitrile]
10 to 50	–	Fc1ccc(F)c([C@H]2CCCN2c2ccn3ncc(-c4nc5cc(O[C@@H]6CCOC6)c(O[C@H]6CCOC6)cc5[nH]4)c3n2)c1 [Compound 118, 5-((R)-2-(2,5-difluorophenyl)pyrrolidin-1-yl)-3-(5-(((R)-tetrahydrofuran-3-yl)oxy)-6-(((S)-tetrahydrofuran-3-yl)oxy)-1H-benzo[d]imidazol-2-yl)pyrazolo[1,5-a]pyrimidine]
–	0.7	COc1ccc2nc(-c3cnn4ccc(N5CCC[C@@H]5c5cc(F)ccc5F)nc34)[nH]c2c1 [Compound 77, (R)-5-(2-(2,5-difluorophenyl)pyrrolidin-1-yl)-3-(6-methoxy-1H-benzo[d]imidazol-2-yl)pyrazolo[1,5-a]pyrimidine]
–	47	CC(C)(C)OC(=O)N1CCC1c1nnc(-c2cnn3ccc(N4CCC[C@@H]4c4cc(F)ccc4F)nc23)[nH]1 (stereo partly drawn) [Compound 20, tert-butyl 2-(5-(5-((R)-2-(2,5-difluorophenyl)pyrrolidin-1-yl)pyrazolo[1,5-a]pyrimidin-3-yl)-4H-1,2,4-triazol-3-yl)azetidine-1-carboxylate]
–	7	Fc1ccc(F)c([C@H]2CCCN2c2ccn3ncc(-c4nc5ncc(Cl)c(Cl)c5[nH]4)c3n2)c1 [Compound 102, (R)-6,7-dichloro-2-(5-(2-(2,5-difluorophenyl)pyrrolidin-1-yl)pyrazolo[1,5-a]pyrimidin-3-yl)-1H-imidazo[4,5-b]pyridine]
–	1	COc1cccc2oc(-c3cnn4ccc(N5CCC[C@@H]5c5cc(F)ccc5F)nc34)nc12 [Compound 100, (R)-2-(5-(2-(2,5-difluorophenyl)pyrrolidin-1-yl)pyrazolo[1,5-a]pyrimidin-3-yl)-4-methoxybenzo[d]oxazole]
≤ 10	–	CC(O)c1ccc2nc(-c3cnn4ccc(N5CCC[C@@H]5c5cc(F)ccc5F)nc34)oc2c1 (stereo partly drawn) [Compound 68, 1-(2-(5-((R)-2-(2,5-difluorophenyl)pyrrolidin-1-yl)pyrazolo[1,5-a]pyrimidin-3-yl)benzo[d]oxazol-6-yl)ethan-1-ol]
10 to 50	–	Fc1ccc(F)c([C@H]2CCCN2c2ccn3ncc(-c4nc5cc6c(cc5[nH]4)OCCOCCOCCO6)c3n2)c1 [Compound 82, (R)-2-(5-(2-(2,5-difluorophenyl)pyrrolidin-1-yl)pyrazolo[1,5-a]pyrimidin-3-yl)-6,7,9,10,12,13-hexahydro-1H-[1,4,7,10]tetraoxacyclododecino[2′,3′:4,5]benzo[1,2-d]imidazole]
–	2.02	CCC(O)C(F)(F)c1nnc(-c2cnn3ccc(N4CCC[C@@H]4c4cc(F)ccc4F)nc23)[nH]1 (stereo partly drawn) [Compound 46, 1-(5-(5-((R)-2-(2,5-difluorophenyl)pyrrolidin-1-yl)pyrazolo[1,5-a]pyrimidin-3-yl)-4H-1,2,4-triazol-3-yl)-1,1-difluorobutan-2-ol]
≤ 10	–	COc1cc2nc(-c3c(N)nn4ccc(N5CCC[C@@H]5c5cc(F)ccc5F)nc34)[nH]c2cc1C#N [Compound 194, (R)-2-(2-amino-5-(2-(2,5-difluorophenyl)pyrrolidin-1-yl)pyrazolo[1,5-a]pyrimidin-3-yl)-5-methoxy-1H-benzo[d]imidazole-6-carbonitrile]
≤ 10	–	CCOc1cc2[nH]c(-c3cnn4ccc(N5CCC[C@@H]5c5cc(F)ccc5F)nc34)nc2cc1C#N [Compound 140, (R)-2-(5-(2-(2,5-difluorophenyl)pyrrolidin-1-yl)pyrazolo[1,5-a]pyrimidin-3-yl)-6-ethoxy-1H-benzo[d]imidazole-5-carbonitrile]
> 50	–	Fc1ccc(F)c([C@H]2CCCN2c2ccn3ncc(-c4nc5cc6nc7ccccc7nc6cc5[nH]4)c3n2)c1 [Compound 130, (R)-2-(5-(2-(2,5-difluorophenyl)pyrrolidin-1-yl)pyrazolo[1,5-a]pyrimidin-3-yl)-1H-imidazo[4,5-b]phenazine]
10 to 50	–	OC1CCNC(c2nnc(-c3cnn4ccc(N5CCC[C@@H]5c5cc(F)ccc5F)nc34)[nH]2)C1 (stereo partly drawn) [Compound 35, 2-(5-(5-((R)-2-(2,5-difluorophenyl)pyrrolidin-1-yl)pyrazolo[1,5-a]pyrimidin-3-yl)-4H-1,2,4-triazol-3-yl)piperidin-4-ol]
–	0.59	Fc1ccc(F)c([C@H]2CCCN2c2ccn3ncc(-c4nc5cnccc5o4)c3n2)c1 [Compound 73, (R)-2-(5-(2-(2,5-difluorophenyl)pyrrolidin-1-yl)pyrazolo[1,5-a]pyrimidin-3-yl)oxazolo[4,5-c]pyridine]
≤ 10	–	O=C1NCCNc2cc3[nH]c(-c4cnn5ccc(N6CCC[C@@H]6c6cc(F)ccc6F)nc45)nc3cc21 [Compound 146, (R)-2-(5-(2-(2,5-difluorophenyl)pyrrolidin-1-yl)pyrazolo[1,5-a]pyrimidin-3-yl)-5,6,7,8-tetrahydroimidazo[4′,5′:4,5]benzo[1,2-e][1,4]diazepin-9(3H)-one]
–	0.32	COc1cc2nc(-c3cnn4ccc(N5CCC[C@@H]5c5cc(F)ccc5F)nc34)[nH]c2cc1CO [Compound 67, (R)-(2-(5-(2-(2,5-difluorophenyl)pyrrolidin-1-yl)pyrazolo[1,5-a]pyrimidin-3-yl)-5-methoxy-1H-benzo[d]imidazol-6-yl)methanol]
≤ 10	–	CNc1cc2[nH]c(-c3cnn4ccc(N5CCC[C@@H]5c5cc(F)ccc5F)nc34)nc2cc1C#N [Compound 142, (R)-2-(5-(2-(2,5-difluorophenyl)pyrrolidin-1-yl)pyrazolo[1,5-a]pyrimidin-3-yl)-6-(methylamino)-1H-benzo[d]imidazole-5-carbonitrile]
–	0.73	COc1cc2nc(-c3cnn4ccc(N5CCC[C@@H]5c5cc(F)ccc5F)nc34)[nH]c2cc1OC [Compound 78, (R)-5-(2-(2,5-difluorophenyl)pyrrolidin-1-yl)-3-(5,6-dimethoxy-1H-benzo[d]imidazol-2-yl)pyrazolo[1,5-a]pyrimidine]
–	2.6	COc1cc2[nH]c(-c3cnn4ccc(N5CCC[C@@H]5c5cccc(F)c5)nc34)nc2cc1C#N [Compound 196, (R)-2-(5-(2-(3-fluorophenyl)pyrrolidin-1-yl)pyrazolo[1,5-a]pyrimidin-3-yl)-6-methoxy-1H-benzo[d]imidazole-5-carbonitrile]
